Measured values taken from patent publication US7166634B2, “Bis-indole pyrroles useful as antimicrobials agents” (Nereus Pharmaceuticals, Inc., priority 2004, dated 2007).
Several values for one entry are separate records, joined by “and”; a condition that tells them apart may be missing. Equal values may be shown once.

Test system: S. epidermidis - ATCC 700578
Test: MIC, broth microdilution (NCCLS M7-A5)
Format: cell-based
Parameters: Staph Epi 700578 MIC: unit not given here
Conditions: Table 4; averages of 2 experiments, * single experiment; both values given when differing >2 fold
Experimental: (§1) Minimum inhibitory concentrations (MICs) are determined according to the National Committee for Clinical Laboratory Standards (NCCLS) susceptibility test guideline M7-A5 (Ferraro, M. 2001 Methods for Dilution Antimicrobial Susceptibility Tests for Bacteria that Grow Aerobically; Approved Standard (NCCLS). National Committee for Clinical Laboratory Standards (NCCLS), Villanova) to quantify the antimicrobial activity of the compounds of the present embodiment against various pathogenic bacteria. Susceptibility testing is performed by broth microdilution in accordance with National Committee for Clinical Laboratory Standards (NCCLS) guidelines. This procedure entails combining the test compounds with a standardized number of cells, incubating at the temperature and amount of time appropriate for each particular organism, and visually scoring the concentration at which no growth was apparent in the test wells. The panel includes both drug sensitive and drug resistant isolates of both gram-positive and gram-negative bacteria, including: S. aureus (both MSSA and MRSA), S. pneumoniae (wild type and penicillin-resistant), vancomycin-sensitive E. faecalis, vancomycin-resistant E. faecium, E. coli, H. influenzae and P. aeruginosa.
(§2) Susceptibility testing was performed by broth microdilution in accordance with National Committee for Clinical Laboratory Standards (NCCLS) guidelines. Antimicrobial data for compounds of Formulae II, III, IV, VI, VII, VIII, IX, XII, XIII, XIV, XV′, XV, XVI, XVII, XVIII, XXI′, XXII, XXIII, XXIV, and XXV are shown in Tables 3, 4 and 5.

Row | SMILES | Staph Epi 700578 MIC
1 | COC(=O)c1[nH]cc(-c2c[nH]c3cc(F)c(Cl)cc23)c1-c1c[nH]c2ccc(Cl)cc12 [XVII] | 1*
2 | COC(=O)c1[nH]cc(-c2c[nH]c3ccc(Br)cc23)c1-c1c[nH]c2ccc(Br)cc12 [XVI] | 2.5
3 | COC(=O)c1[nH]c(C(=O)OC)c(-c2c[nH]c3ccc(F)cc23)c1-c1c[nH]c2ccccc12 [XXIII] | >32*
4 | COC(=O)c1[nH]cc(-c2c[nH]c3cc(Cl)c(F)cc23)c1-c1c[nH]c2ccc(F)cc12 [XXIV] | 2*
5 | COC(=O)c1[nH]c(C(=O)OC)c(-c2c[nH]c3cc(F)ccc23)c1-c1c[nH]c2ccccc12 [XXV] | 8*

Test system: S. epidermidis - ATCC 700582
Test: MIC, broth microdilution (NCCLS M7-A5)
Format: cell-based
Parameters: Staph Epi 700582 MIC: unit not given here
Conditions: Table 4; averages of 2 experiments, * single experiment; both values given when differing >2 fold
Experimental: as §1, §2

Row | SMILES | Staph Epi 700582 MIC
6 | COC(=O)c1[nH]cc(-c2c[nH]c3cc(F)c(Cl)cc23)c1-c1c[nH]c2ccc(Cl)cc12 [XVII] | 1*
7 | COC(=O)c1[nH]cc(-c2c[nH]c3ccc(Br)cc23)c1-c1c[nH]c2ccc(Br)cc12 [XVI] | 2.5
8 | COC(=O)c1[nH]c(C(=O)OC)c(-c2c[nH]c3ccc(F)cc23)c1-c1c[nH]c2ccccc12 [XXIII] | 16*
9 | COC(=O)c1[nH]cc(-c2c[nH]c3cc(Cl)c(F)cc23)c1-c1c[nH]c2ccc(F)cc12 [XXIV] | 2*
10 | COC(=O)c1[nH]c(C(=O)OC)c(-c2c[nH]c3cc(F)ccc23)c1-c1c[nH]c2ccccc12 [XXV] | 8*

Test system: E. coli - imp
Test: MIC, broth microdilution (NCCLS M7-A5)
Format: cell-based
Conditions: Table 5
Experimental: as §1, §2

Row | SMILES | E. coli imp MIC
11 | COC(=O)c1[nH]cc(-c2c[nH]c3cc(F)c(Cl)cc23)c1-c1c[nH]c2ccc(Cl)cc12 [XVII] | 8 µg/mL
12 | COC(=O)c1[nH]cc(-c2c[nH]c3ccc(Br)cc23)c1-c1c[nH]c2ccc(Br)cc12 [XVI] | >32, 32 ug/mL
13 | COC(=O)c1[nH]c(C(=O)OC)c(-c2c[nH]c3ccc(F)cc23)c1-c1c[nH]c2ccccc12 [XXIII] | >32 µg/mL
14 | COC(=O)c1[nH]cc(-c2c[nH]c3cc(Cl)c(F)cc23)c1-c1c[nH]c2ccc(F)cc12 [XXIV] | 8 µg/mL
15 | COC(=O)c1[nH]c(C(=O)OC)c(-c2c[nH]c3cc(F)ccc23)c1-c1c[nH]c2ccccc12 [XXV] | >32 µg/mL

Test system: E. faecium - Van^r (VRE 700221)
Test: MIC, broth microdilution (NCCLS M7-A5)
Format: cell-based
Conditions: Table 4; averages of 2 experiments, * single experiment; both values given when differing >2 fold; in µg/mL
Experimental: as §1, §2

Row | SMILES | VRE 700221 MIC
16 | COC(=O)c1[nH]cc(-c2c[nH]c3cc(F)c(Cl)cc23)c1-c1c[nH]c2ccc(Cl)cc12 [XVII] | 4*
17 | COC(=O)c1[nH]cc(-c2c[nH]c3ccc(Br)cc23)c1-c1c[nH]c2ccc(Br)cc12 [XVI] | 6
18 | COC(=O)c1[nH]c(C(=O)OC)c(-c2c[nH]c3ccc(F)cc23)c1-c1c[nH]c2ccccc12 [XXIII] | >32*
19 | COC(=O)c1[nH]cc(-c2c[nH]c3cc(Cl)c(F)cc23)c1-c1c[nH]c2ccc(F)cc12 [XXIV] | 8*
20 | COC(=O)c1[nH]c(C(=O)OC)c(-c2c[nH]c3cc(F)ccc23)c1-c1c[nH]c2ccccc12 [XXV] | >32*

Test system: H. influenzae - ATCC 49247
Test: MIC, broth microdilution (NCCLS M7-A5)
Format: cell-based
Conditions: Table 4 (MIC); averages of 2 experiments, * single experiment; both values given when differing >2 fold
Experimental: as §1, §2

Row | SMILES | H. inf. 49247
21 | COC(=O)c1[nH]cc(-c2c[nH]c3cc(F)c(Cl)cc23)c1-c1c[nH]c2ccc(Cl)cc12 [XVII] | >32*
22 | COC(=O)c1[nH]cc(-c2c[nH]c3ccc(Br)cc23)c1-c1c[nH]c2ccc(Br)cc12 [XVI] | >32
23 | COC(=O)c1[nH]c(C(=O)OC)c(-c2c[nH]c3ccc(F)cc23)c1-c1c[nH]c2ccccc12 [XXIII] | >32*
24 | COC(=O)c1[nH]cc(-c2c[nH]c3cc(Cl)c(F)cc23)c1-c1c[nH]c2ccc(F)cc12 [XXIV] | 16*
25 | COC(=O)c1[nH]c(C(=O)OC)c(-c2c[nH]c3cc(F)ccc23)c1-c1c[nH]c2ccccc12 [XXV] | 8*

Test system: H. influenzae - ATCC 49766
Test: MIC, broth microdilution (NCCLS M7-A5)
Format: cell-based
Conditions: Table 4 (MIC); averages of 2 experiments, * single experiment; both values given when differing >2 fold
Experimental: as §1, §2

Row | SMILES | H. inf. 49766
26 | COC(=O)c1[nH]cc(-c2c[nH]c3cc(F)c(Cl)cc23)c1-c1c[nH]c2ccc(Cl)cc12 [XVII] | 16*
27 | COC(=O)c1[nH]cc(-c2c[nH]c3ccc(Br)cc23)c1-c1c[nH]c2ccc(Br)cc12 [XVI] | 16 and > 32
28 | COC(=O)c1[nH]c(C(=O)OC)c(-c2c[nH]c3ccc(F)cc23)c1-c1c[nH]c2ccccc12 [XXIII] | >32*
29 | COC(=O)c1[nH]cc(-c2c[nH]c3cc(Cl)c(F)cc23)c1-c1c[nH]c2ccc(F)cc12 [XXIV] | 16*
30 | COC(=O)c1[nH]c(C(=O)OC)c(-c2c[nH]c3cc(F)ccc23)c1-c1c[nH]c2ccccc12 [XXV] | 16*

Test system: S. aureus - MRSA (43300)
Test: MIC, broth microdilution (NCCLS M7-A5)
Format: cell-based
Conditions: Table 4; averages of 2 experiments, * single experiment; both values given when differing >2 fold; in µg/mL
Experimental: as §1, §2

Row | SMILES | MRSA 43300 MIC
31 | COC(=O)c1[nH]cc(-c2c[nH]c3cc(F)c(Cl)cc23)c1-c1c[nH]c2ccc(Cl)cc12 [XVII] | 1*
32 | COC(=O)c1[nH]cc(-c2c[nH]c3ccc(Br)cc23)c1-c1c[nH]c2ccc(Br)cc12 [XVI] | 2.5
33 | COC(=O)c1[nH]c(C(=O)OC)c(-c2c[nH]c3ccc(F)cc23)c1-c1c[nH]c2ccccc12 [XXIII] | >32*
34 | COC(=O)c1[nH]cc(-c2c[nH]c3cc(Cl)c(F)cc23)c1-c1c[nH]c2ccc(F)cc12 [XXIV] | 1.5*
35 | COC(=O)c1[nH]c(C(=O)OC)c(-c2c[nH]c3cc(F)ccc23)c1-c1c[nH]c2ccccc12 [XXV] | 8*

Test system: S. aureus - MSSA (29213)
Test: MIC, broth microdilution (NCCLS M7-A5)
Format: cell-based
Conditions: Table 4; averages of 2 experiments, * single experiment; both values given when differing >2 fold; in µg/mL
Experimental: as §1, §2

Row | SMILES | MSSA 29213 MIC
36 | COC(=O)c1[nH]cc(-c2c[nH]c3cc(F)c(Cl)cc23)c1-c1c[nH]c2ccc(Cl)cc12 [XVII] | 1*
37 | COC(=O)c1[nH]cc(-c2c[nH]c3ccc(Br)cc23)c1-c1c[nH]c2ccc(Br)cc12 [XVI] | 1.4
38 | COC(=O)c1[nH]c(C(=O)OC)c(-c2c[nH]c3ccc(F)cc23)c1-c1c[nH]c2ccccc12 [XXIII] | 16*
39 | COC(=O)c1[nH]cc(-c2c[nH]c3cc(Cl)c(F)cc23)c1-c1c[nH]c2ccc(F)cc12 [XXIV] | 1*
40 | COC(=O)c1[nH]c(C(=O)OC)c(-c2c[nH]c3cc(F)ccc23)c1-c1c[nH]c2ccccc12 [XXV] | 4*

Test system: S. pneumoniae - penicillin resistant (51915)
Test: MIC, broth microdilution (NCCLS M7-A5)
Format: cell-based
Conditions: Table 4; averages of 2 experiments, * single experiment; both values given when differing >2 fold; in µg/mL
Experimental: as §1, §2

Row | SMILES | S. pneumo 51915 Pen R MIC
41 | COC(=O)c1[nH]cc(-c2c[nH]c3cc(F)c(Cl)cc23)c1-c1c[nH]c2ccc(Cl)cc12 [XVII] | 24*
42 | COC(=O)c1[nH]cc(-c2c[nH]c3ccc(Br)cc23)c1-c1c[nH]c2ccc(Br)cc12 [XVI] | 24
43 | COC(=O)c1[nH]c(C(=O)OC)c(-c2c[nH]c3ccc(F)cc23)c1-c1c[nH]c2ccccc12 [XXIII] | >32*
44 | COC(=O)c1[nH]cc(-c2c[nH]c3cc(Cl)c(F)cc23)c1-c1c[nH]c2ccc(F)cc12 [XXIV] | 16*
45 | COC(=O)c1[nH]c(C(=O)OC)c(-c2c[nH]c3cc(F)ccc23)c1-c1c[nH]c2ccccc12 [XXV] | >32*

Test system: S. pneumoniae - penicillin sensitive (49619)
Test: MIC, broth microdilution (NCCLS M7-A5)
Format: cell-based
Conditions: Table 4; averages of 2 experiments, * single experiment; both values given when differing >2 fold; in µg/mL
Experimental: as §1, §2

Row | SMILES | S. pneumo 49619 Pen. S MIC
46 | COC(=O)c1[nH]cc(-c2c[nH]c3cc(F)c(Cl)cc23)c1-c1c[nH]c2ccc(Cl)cc12 [XVII] | 16*
47 | COC(=O)c1[nH]cc(-c2c[nH]c3ccc(Br)cc23)c1-c1c[nH]c2ccc(Br)cc12 [XVI] | 20
48 | COC(=O)c1[nH]c(C(=O)OC)c(-c2c[nH]c3ccc(F)cc23)c1-c1c[nH]c2ccccc12 [XXIII] | >32*
49 | COC(=O)c1[nH]cc(-c2c[nH]c3cc(Cl)c(F)cc23)c1-c1c[nH]c2ccc(F)cc12 [XXIV] | 23*
50 | COC(=O)c1[nH]c(C(=O)OC)c(-c2c[nH]c3cc(F)ccc23)c1-c1c[nH]c2ccccc12 [XXV] | 32*

Test system: E. faecalis - Van^s (VSE 29212)
Test: MIC, broth microdilution (NCCLS M7-A5)
Format: cell-based
Parameters: VSE 29212 MIC: unit not given here
Conditions: Table 4; averages of 2 experiments, * single experiment; both values given when differing >2 fold
Experimental: as §1, §2

Row | SMILES | VSE 29212 MIC
51 | COC(=O)c1[nH]cc(-c2c[nH]c3cc(F)c(Cl)cc23)c1-c1c[nH]c2ccc(Cl)cc12 [XVII] | 4*
52 | COC(=O)c1[nH]cc(-c2c[nH]c3ccc(Br)cc23)c1-c1c[nH]c2ccc(Br)cc12 [XVI] | 5
53 | COC(=O)c1[nH]c(C(=O)OC)c(-c2c[nH]c3ccc(F)cc23)c1-c1c[nH]c2ccccc12 [XXIII] | >32*
54 | COC(=O)c1[nH]cc(-c2c[nH]c3cc(Cl)c(F)cc23)c1-c1c[nH]c2ccc(F)cc12 [XXIV] | 4*
55 | COC(=O)c1[nH]c(C(=O)OC)c(-c2c[nH]c3cc(F)ccc23)c1-c1c[nH]c2ccccc12 [XXV] | >32*
